From patent US7098013B2, “Polypeptide having α-isomaltosyl-transferase activity” (Kabushiki Kaisha Hayashibara Seibutsu Kagaku Kenkyujo, priority 2000, dated 2006)

Legend:
[1] = test system: α-isomaltosyl-transferring enzyme; experiment: Action of the purified C11 enzyme on saccharide substrates (saccharide composition by HPLC); type: biochemical, Bacillus globisporus C11; details: for yield of cyclotetrasaccharide in dry basis from the substrate: summary of Table 3
Procedure: An aqueous solution containing 10 mM of glucose, 6-O-α-glucosylglucose (isomaltose), 6^2-O-α-glucosylmaltose (panose), 6^3-O-α-glucosylmaltotriose (isomaltosylmaltose), 6^4-O-α-glucosylmaltotetraose, or 6^5-O-α-glucosylmaltopentaose was prepared as substrate solution. To each of the above substrate solution was added two units/mM-substrate of the purified α-isomaltosyl-transferring enzyme specimen obtained in Experiment 1-2 and incubated at 30° C. and at pH 6.0 for 12 hours. After deionizing by conventional method, the resulting reaction solutions were measured for saccharide composition on HPLC using “MCI GEL CK04SS”, a column commercialized by Mitsubishi Chemical Industries, Ltd., Tokyo, Japan, at a column temperature of 80° C. and a flow rate of 0.4 ml/min of water, and using a detector “RI-8012”, a differential refractometer commercialized by Tosho Corporation, Tokyo, Japan.

[2] = test system: α-isomaltosyl-transferring enzyme; experiment: Action of the purified N75 enzyme on saccharide substrates (saccharide composition by HPLC); type: biochemical, Bacillus globisporus N75; details: for yield of cyclotetrasaccharide in dry basis from the substrate: summary of Table 6
Procedure: An aqueous solution containing 10 mM of glucose, 6-O-α-glucosylglucose (isomaltose), 6^2-O-α-glucosylmaltose (panose), 6^3-O-α-glucosylmaltotriose (isomaltosylmaltose), 6^4-O-αglucosylmaltotetraose, or 6^5-O-α-glucosylmaltopentaose was prepared as substrate solution. To each of the above substrate solutions was added two units/mM-substrate of the purified α-isomaltosyl-transferring enzyme specimen obtained in Experiment 3-2 and incubated at 30° C. and at pH 6.0 for 12 hours. After deionizing by conventional method, the resulting reaction solutions were measured for saccharide composition on HPLC, disclosed in Experiment 2-1.

[3] = test system: Bacillus globisporus C11; experiment: Utilization of carbon source and acid formation, strain C11; type: cell-based; parameters: key: The symbol “+” means yes or positive; details: carbon source
Procedure: (§1) Physiological Properties> • (1) VP-test: Negative • (2) Indole formation: Negative • (3) Gas formation from nitric acid: Positive • (4) Hydrolysis of starch: Positive • (5) Formation of pigment: Forming no soluble pigment • (6) Urease: Positive • (7) Oxidase: Positive • (8) Catalase: Positive • (9) Growth conditions: Growing at a pH of 5.5–9.0 and a temperature of 10–35° C. • (10) Oxygen requirement: Aerobic • (11) Utilization of carbon source and acid formation

[4] = test system: Bacillus globisporus N75; experiment: Utilization of carbon source and acid formation, strain N75; type: cell-based; parameters: key: The symbol “+” means yes or positive; details: carbon source
Procedure: as §1

[5] = C11 enzyme 2 units/mM-substrate, 10 mM substrate, 30° C., pH 6.0, 12 hours
[6] = N75 enzyme 2 units/mM-substrate, 10 mM substrate, 30° C., pH 6.0, 12 hours

O=C[C@H](O)[C@@H](O)[C@H](O)[C@H](O)CO[C@H]1O[C@H](CO)[C@@H](O)[C@H](O)[C@H]1O [6-O-α-Glucosylglucose, 6-O-α-glucosylglucose] was tested, and the “product formation from the substrate” value ([1]; C11 enzyme) was “No product was detected”, the “Content of the substrate itself (remaining) in the reaction mixture” value (“Content … (remaining) in the reaction mixture” for short) [1, 5] was 100% and the “product formation from the substrate” value ([2]; N75 enzyme) was “No product was detected”. The “Content … (remaining) in the reaction mixture” value [2, 6] was 100%.

With OC[C@H]1O[C@H](OC[C@H]2O[C@H](O[C@H]3[C@H](O)[C@@H](O)C(O)O[C@@H]3CO)[C@H](O)[C@@H](O)[C@@H]2O)[C@H](O)[C@@H](O)[C@@H]1O (stereo partly drawn) [6^2-O-α-Glucosylmaltose, 6^2-O-α-glucosylmaltose] the “Content of Cyclotetrasaccharide in the reaction mixture” value (“Content of Cyclotetrasaccharide” for short) [1, 5] was 43.5%, the “Content of Glucose in the reaction mixture” value [1, 5] was 32.2% and the “Content of Isomaltose in the reaction mixture” value (shortened to “Content of Isomaltose”) [1, 5] was 2.1%. The “Content of Isomaltosylpanose in the reaction mixture” value [1, 5] was 4.8%, the “Content of Isomaltosypanoside in the reaction mixture” value [1, 5] was 1.8% and the “Content of others in the reaction mixture” value (from here on “Content of others”) [1, 5] was 11.0%. For the same compound, the “Content … (remaining) in the reaction mixture” value [1, 5] was 4.6%, the “yield of cyclotetrasaccharide in dry basis from the substrate” value (“yield of cyclotetrasaccharide” for short) ([1]; C11 enzyme) was 43.5% and the “Content of Cyclotetrasaccharide” value [2, 6] was 43.2%. For the same compound, the “Content of Glucose in the reaction mixture” value [2, 6] was 31.8%, the “Content of Isomaltose” value [2, 6] was 2.0% and the “Content of Isomaltosylpanose in the reaction mixture” value [2, 6] was 6.5%. For the same compound, the “Content of Isomaltosypanoside in the reaction mixture” value [2, 6] was 2.4%, the “Content of others” value [2, 6] was 9.7% and the “Content … (remaining) in the reaction mixture” value [2, 6] was 4.4%. For the same compound, the “yield of cyclotetrasaccharide” value ([2]; N75 enzyme) was 43.2%.

With OC[C@H]1O[C@H](OC[C@H]2O[C@H](O[C@H]3[C@H](O)[C@@H](O)[C@@H](O[C@H]4[C@H](O)[C@@H](O)C(O)O[C@@H]4CO)O[C@@H]3CO)[C@H](O)[C@@H](O)[C@@H]2O)[C@H](O)[C@@H](O)[C@@H]1O (stereo partly drawn) [6^3-O-α-Glucosylmaltotriose, 6^3-O-α-glucosylmaltotriose] the “Content of Cyclotetrasaccharide” value [1, 5] was 30.8%, the “Content of Isomaltose” value [1, 5] was 2.0% and the “Content of Maltose in the reaction mixture” value [1, 5] was 50.6%. The “Content of others” value [1, 5] was 12.4%, the “Content … (remaining) in the reaction mixture” value [1, 5] was 4.2% and the “yield of cyclotetrasaccharide” value ([1]; C11 enzyme) was 30.8%. For the same compound, the “Content of Cyclotetrasaccharide” value [2, 6] was 30.9%, the “Content of Isomaltose” value [2, 6] was 1.9% and the “Content of Maltose in the reaction mixture” value [2, 6] was 50.3%. For the same compound, the “Content of others” value [2, 6] was 12.4%, the “Content … (remaining) in the reaction mixture” value [2, 6] was 4.5% and the “yield of cyclotetrasaccharide” value ([2]; N75 enzyme) was 30.9%.

In the case of OC[C@H]1O[C@H](OC[C@H]2O[C@H](O[C@H]3[C@H](O)[C@@H](O)[C@@H](O[C@H]4[C@H](O)[C@@H](O)[C@@H](O[C@H]5[C@H](O)[C@@H](O)C(O)O[C@@H]5CO)O[C@@H]4CO)O[C@@H]3CO)[C@H](O)[C@@H](O)[C@@H]2O)[C@H](O)[C@@H](O)[C@@H]1O (stereo partly drawn) [6^4-O-α-Glucosylmaltotetraose, 6^4-O-α-glucosylmaltotetraose], the “Content of Cyclotetrasaccharide” value [1, 5] is reported as 25.6%, the “Content of Isomaltose” value [1, 5] is reported as 1.9% and the “Content of Maltotriose in the reaction mixture” value [1, 5] is reported as 60.7%. The “Content of others” value [1, 5] was 8.4%, the “Content … (remaining) in the reaction mixture” value [1, 5] was 3.4% and the “yield of cyclotetrasaccharide” value ([1]; C11 enzyme) was 25.6%. The “Content of Cyclotetrasaccharide” value [2, 6] was 25.8%, the “Content of Isomaltose” value [2, 6] was 1.5% and the “Content of Maltotriose in the reaction mixture” value [2, 6] was 60.9%. For the same compound, the “Content of others” value [2, 6] was 8.6%, the “Content … (remaining) in the reaction mixture” value [2, 6] was 3.2% and the “yield of cyclotetrasaccharide” value ([2]; N75 enzyme) was 25.8%.

With OC[C@H]1O[C@H](OC[C@H]2O[C@H](O[C@H]3[C@H](O)[C@@H](O)[C@@H](O[C@H]4[C@H](O)[C@@H](O)[C@@H](O[C@H]5[C@H](O)[C@@H](O)[C@@H](O[C@H]6[C@H](O)[C@@H](O)C(O)O[C@@H]6CO)O[C@@H]5CO)O[C@@H]4CO)O[C@@H]3CO)[C@H](O)[C@@H](O)[C@@H]2O)[C@H](O)[C@@H](O)[C@@H]1O (stereo partly drawn) [6^5-O-α-Glucosylmaltopentaose, 6^5-O-α-glucosylmaltopentaose] the “Content of Cyclotetrasaccharide” value [1, 5] was 18.2%, the “Content of Isomaltose” value [1, 5] was 1.6% and the “Content of Maltotetraose in the reaction mixture” value [1, 5] was 66.5%. The “Content of others” value [1, 5] was 9.4%, the “Content … (remaining) in the reaction mixture” value [1, 5] was 4.3% and the “yield of cyclotetrasaccharide” value ([1]; C11 enzyme) was 18.2%. The “Content of Cyclotetrasaccharide” value [2, 6] was 18.7%, the “Content of Isomaltose” value [2, 6] was 1.4% and the “Content of Maltotetraose in the reaction mixture” value [2, 6] was 66.6%. For the same compound, the “Content of others” value [2, 6] was 9.1%, the “Content … (remaining) in the reaction mixture” value [2, 6] was 4.2% and the “yield of cyclotetrasaccharide” value ([2]; N75 enzyme) was 18.7%.

For OCC(O)CO [Glycerol], the Acid formation [3] was “+”, the Utilization [3] was “+” and the Acid formation [4] was “+”. The Utilization [4] was “+”.

With OC[C@H]1O[C@@H](O[C@H]2[C@H](O)[C@@H](O)C(O)O[C@@H]2CO)[C@H](O)[C@@H](O)[C@H]1O (some centres unmarked) [Lactose] the Acid formation [3] was “+”, the Utilization [3] was “+” and the Acid formation [4] was “+”. The Utilization [4] was “+”.

For OC[C@H]1O[C@@](CO)(O[C@H]2O[C@H](CO)[C@@H](O)[C@H](O)[C@H]2O)[C@@H](O)[C@@H]1O [Sucrose], the Acid formation [3] was “+”, the Utilization [3] was “+” and the Acid formation [4] was “+”. The Utilization [4] was “+”.
